Assay results taken from patent publication US8084481B2, “Substituted arylimidazolone and triazolone as inhibitors of vasopressin receptors” (Bayer Pharma Aktiengesellschaft, priority 2006, dated 2011).

How the values were obtained:
human V1a receptor = biological target: T1, human V1a receptor (Homo sapiens, UniProt P37288); test: Cellular in vitro test for determination of the vasopressin receptor activity (aequorin luminescence, CHO cells), human V1a; format: cell-based; conditions: cell line transfected with the human V1a receptor, antagonism of [Arg8]-vasopressin, read-out: IC50 hV1a
T1 construct: expressed in transfected cells; host or cells: CHO K1 (ATCC), constitutively expressing a modified aequorin
Text: (§1) B-1. Cellular In Vitro Test for Determination of the Vasopressin Receptor Activity
(§2) The identification of agonists and antagonists of the V1a- and V2-vasopressin receptors in man and the rat and the quantification of the activity of the compounds according to the invention are effected by means of recombinant cell lines. These cells are originally derived from the ovarian epithelial cells of the hamster (Chinese Hamster Ovary, CHO K1, ATCC: American Type Culture Collection, Manassas, Va. 20108, USA). The test cell lines constitutively express a modified form of the calcium-sensitive photoprotein aequorin, which after reconstitution with the cofactor coelenterazine emits light on an increase in the free calcium concentrations [Rizzuto R, Simpson A W, Brini M, Pozzan T, Nature 358, 325-327 (1992)]. In addition, the cells are stably transfected with human or rat V1a- or V2 receptors. In the case of the Gs-coupled V2 receptors, the cells are stably transfected with a further gene which codes for the promiscuous Gα16-Protein [Amatruda T T, Steele D A, Slepak V Z, Simon M I, Proceedings of the National Academy of Science USA 88, 5587-5591 (1991)]. The resulting vasopressin receptor test cells react to stimulation of the recombinantly expressed vasopressin receptors with an intracellular release of calcium ions, which can be quantified by the resulting aequorin luminescence with a suitable luminometer [Milligan G, Marshall F, Rees S, Trends in Pharmacological Sciences 17, 235-237 (1996)].
(§3) On the day before the text, the cells are plated out in culture medium (DMEM, 10% FCS, 2 mM glutamine, 10 mM HEPES) in 384-well microtitre plates and kept in a cell incubator (96% atmospheric humidity, 5% v/v CO2, 37° C.). On the test day, the culture medium is replaced by a Tyrode solution (140 mM NaCl, 5 mM KCl, 1 mM MgCl2, 2 mM CaCl2, 20 mM glucose, 20 mM HEPES) which in addition contains the cofactor coelenterazine (50 μM), and the microtitre plate is then incubated for a further 3-4 hours. The test substances in various concentrations are placed beforehand in the wells of the microtitre plate for 10 to 20 minutes, before the agonist [Arg^8]-vasopressin is added and the resulting light signal immediately measured in the luminometer. The IC50 values are calculated by means of the computer program GraphPad PRISM (Version 3.02).

human V2 receptor = biological target: T2, human V2 receptor (Homo sapiens, UniProt P30518); test: Cellular in vitro test for determination of the vasopressin receptor activity (aequorin luminescence, CHO cells), human V2; format: cell-based; conditions: cell line transfected with the human V2 receptor, antagonism of [Arg8]-vasopressin, read-out: IC50 hV2
T2 construct: expressed in transfected cells; host or cells: CHO K1 (ATCC), constitutively expressing a modified aequorin and stably co-transfected with promiscuous G-alpha-16
Text: as §1, §2, §3

T2 sequence (P30518 whole entry): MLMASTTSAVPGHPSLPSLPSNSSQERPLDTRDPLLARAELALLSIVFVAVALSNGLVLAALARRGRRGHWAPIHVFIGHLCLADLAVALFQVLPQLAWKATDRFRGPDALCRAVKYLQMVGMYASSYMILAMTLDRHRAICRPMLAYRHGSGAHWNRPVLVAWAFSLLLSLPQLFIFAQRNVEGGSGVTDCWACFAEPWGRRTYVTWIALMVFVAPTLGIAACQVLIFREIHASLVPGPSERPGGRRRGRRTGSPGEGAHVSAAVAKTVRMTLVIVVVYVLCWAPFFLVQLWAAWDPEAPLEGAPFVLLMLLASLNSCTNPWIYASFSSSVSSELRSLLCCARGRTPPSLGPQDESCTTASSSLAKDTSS
T1 sequence (P37288 whole entry): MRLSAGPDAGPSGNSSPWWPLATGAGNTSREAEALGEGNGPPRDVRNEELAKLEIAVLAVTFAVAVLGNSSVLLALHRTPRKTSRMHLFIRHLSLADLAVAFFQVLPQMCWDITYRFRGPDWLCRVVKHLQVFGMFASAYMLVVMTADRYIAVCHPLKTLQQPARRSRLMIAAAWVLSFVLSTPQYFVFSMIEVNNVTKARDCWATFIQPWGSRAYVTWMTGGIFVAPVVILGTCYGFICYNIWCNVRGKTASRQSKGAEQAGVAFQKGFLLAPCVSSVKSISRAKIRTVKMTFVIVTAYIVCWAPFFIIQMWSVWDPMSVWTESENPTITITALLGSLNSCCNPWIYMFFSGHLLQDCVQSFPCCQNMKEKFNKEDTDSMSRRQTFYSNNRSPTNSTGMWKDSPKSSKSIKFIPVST

IC50 (human V1a receptor) [nM]	IC50 (human V2 receptor) [nM]	SMILES
338	5	O=C(Cn1nc(-c2ccc(Cl)cc2)n(CC(O)C(F)(F)F)c1=O)N[C@@H]1C[C@@H]1c1cccc(C(F)(F)F)c1 (mixture of isomers) [Example 357, 2-[3-(4-chlorophenyl)-5-oxo-4-(3,3,3-trifluoro-2-hydroxypropyl)-4,5-dihydro-1H-1,2,4-triazol-1-yl]-N-{(1RS,2RS)-[2-(3-trifluoromethyl-phenyl)cyclopropyl]}-acetamide]
12	2	CC(C)(NC(=O)Cn1nc(-c2ccc(Cl)cc2)n(CC(O)C(F)(F)F)c1=O)c1cccc(C(F)(F)F)c1 (single isomer, unassigned) [Example 451, 2-[3-(4-chlorophenyl)-5-oxo-4-(3,3,3-trifluoro-2-hydroxypropyl)-4,5-dihydro-1H-1,2,4-triazol-1-yl]-N-{1-methyl-1-[3-(trifluoromethyl)phenyl]ethyl}-acetamide]
12	2	CCC(O)Cn1c(-c2ccc(Cl)cc2)nn(CC(=O)NC(C)(C)c2cccc(C(F)(F)F)c2)c1=O (single isomer, unassigned) [Example 485, 2-[3-(4-chlorophenyl)-5-oxo-4-(2-hydroxybutyl)-4,5-dihydro-1H-1,2,4-triazol-1-yl]-N-{1-methyl-1-[3-(trifluoromethyl)phenyl]ethyl}-acetamide]
12	3	CC(C)(NC(=O)Cn1cc(-c2ccc(Cl)cc2)n(CC(O)C(F)(F)F)c1=O)c1cccc(C(F)(F)F)c1 (single isomer, unassigned) [Example 501, 2-[4-(4-chlorophenyl)-2-oxo-3-(3,3,3-trifluoro-2-hydroxypropyl)-2,3-dihydro-1H-imidazol-1-yl]-N-{1-methyl-1-[3-(trifluoromethyl)phenyl]ethyl}-acetamide]
6300	180	O=C(CCn1nc(-c2ccc(Cl)cc2)n(C2CC2)c1=O)NCc1cccc(C(F)(F)F)c1 [Example 25]
30	180	CC(NC(=O)Cn1nc(-c2ccc(Cl)cc2)n(C2CC2)c1=O)c1ccccc1C(F)(F)F (centres unmarked) [Example 28]
170	9	COc1ccc(Cn2c(-c3ccc(Cl)cc3)nn(CC(=O)NC(C)(C)c3cccc(C(F)(F)F)c3)c2=O)cc1 [Example 29]
1100	9	O=C(Cn1nc(-c2ccc(Cl)cc2)n(CC2CCCCC2)c1=O)NCc1cccc(C(F)(F)F)c1 [Example 59]
38	> 10000	CC(C)Cn1c(-c2ccc(Cl)s2)nn(CC(=O)NCc2ccccc2C(F)(F)F)c1=O [Example 63]
390	26	CC(C)(NC(=O)Cn1nc(-c2ccc(Cl)cc2)n(C2CC2)c1=O)c1cccc(C(F)(F)F)c1 [Example 75, 2-[3-(4-chlorophenyl)-4-cyclopropyl-5-oxo-4,5-dihydro-1H-1,2,4-triazol-1-yl]-N-{1-methyl-1-[3-(trifluoromethyl)phenyl]ethyl}acetamide]
320	8	CC(C)Cn1c(-c2ccc(Cl)s2)nn(CC(=O)NC(C)(C)c2cccc(C(F)(F)F)c2)c1=O [Example 84]
94	1100	CCn1c(-c2ccc(Cl)cc2)nn(CC(=O)NCc2ccccc2C(F)(F)F)c1=O [Example 101]
960	6	O=C(Cn1nc(-c2ccc(Cl)cc2)n(Cc2ccc(F)cc2)c1=O)NCc1cccc(C(F)(F)F)c1 [Example 143]
95	7	O=C(Cn1nc(-c2ccc(Cl)cc2)n(Cc2ccccc2F)c1=O)NCc1cccc(C(F)(F)F)c1 [Example 145]
3400	930	CC(C)Cn1c(-c2ccccc2-c2ccccc2)nn(CC(=O)NCc2cccc(C(F)(F)F)c2)c1=O [Example 151]
42	12	COc1ccc(Cn2c(-c3ccc(Cl)cc3)nn(CC(=O)NCc3cccc(C(F)(F)F)c3)c2=O)cc1 [Example 153, 2-[3-(4-chlorophenyl)-4-(4-methoxyphenylmethyl)-5-oxo-4,5-dihydro-1H-1,2,4-triazol-1-yl]-N-[3-(trifluoromethyl)phenylmethyl]acetamide]
440	420	COc1ccccc1CCNC(=O)Cn1nc(-c2ccc(Cl)cc2)n(C2CC2)c1=O [Example 159]

IC50 (human V1a receptor) [nM]	IC50 (human V2 receptor) [nM]	SMILES
230	63	Cc1c(-c2ccc(Cl)cc2)n(C2CC2)c(=O)n1CC(=O)N[C@@H](C)c1cccc2ccccc12 [Example 207]
140	260	CCn1c(-c2ccc(Cl)cc2)cn(CC(=O)NC(C)c2cccc(C(F)(F)F)c2)c1=O (centres unmarked) [Example 209]
6300	180	CC(C(=O)NC(C)(C)c1cccc(C(F)(F)F)c1)n1cc(-c2ccc(Cl)cc2)n(C2CC2)c1=O (centres unmarked) [Example 214]
73	6	COc1cc(Cl)ccc1-c1nn(CC(=O)NC(C)(C)c2cccc(C(F)(F)F)c2)c(=O)n1Cc1ccccc1F [Example 216, 2-[3-(4-chloro-2-methoxyphenyl)-4-(2-fluorobenzyl)-5-oxo-4,5-dihydro-1H-1,2,4-triazol-1-yl]-N-[1-methyl-1-(3-trifluoromethyl-phenyl)ethyl]-acetamide]
90	9	Cc1ccc(-c2nn(CC(=O)NC(C)(C)c3cccc(C(F)(F)F)c3)c(=O)n2Cc2ccccc2F)s1 [Example 219]
165	30	CC(C)(NC(=O)Cn1nc(-c2ccc(F)c(F)c2)n(Cc2ccccc2F)c1=O)c1cccc(C(F)(F)F)c1 [Example 221]
8	37	COc1cc(Cl)ccc1-c1nn(CC(=O)NCc2ccccc2C(F)(F)F)c(=O)n1Cc1ccccc1F [Example 227]
783	83	CC(C)(NC(=O)Cn1nc(-c2ccc(Cl)cc2Cl)n(C2CC2)c1=O)c1cccc(C(F)(F)F)c1 [Example 230]
76	271	Cc1cc(Cl)ccc1-c1nn(CC(=O)NCCc2ccccc2C(F)(F)F)c(=O)n1Cc1ccccc1F [Example 241]
37	13	C[C@H](NC(=O)Cn1nc(-c2ccc(Cl)s2)n(Cc2ccccc2F)c1=O)c1cccc(C(F)(F)F)c1 [Example 251]
18	447	CC(NC(=O)Cn1nc(-c2ccc(Cl)s2)n(Cc2ccccc2F)c1=O)c1nccc2ccccc12 (centres unmarked) [Example 252]
30	154	O=C(Cn1nc(-c2ccccc2O)n(Cc2cccc(F)c2)c1=O)NCCc1ccccc1C(F)(F)F [Example 260]
157	5	COc1cc(Cl)ccc1-c1nn(CC(=O)NC(C)(C)c2cccc(C(F)(F)F)c2)c(=O)n1Cc1cccc(F)c1 [Example 262]
28	749	CN(C)C(CNC(=O)Cn1nc(-c2ccc(Cl)cc2)n(Cc2ccccc2F)c1=O)c1ccccc1Cl (centres unmarked) [Example 265]
9	191	O=C(Cn1nc(-c2ccc(Cl)cc2)n(Cc2ccccc2F)c1=O)NC1(Cc2ccccc2C(F)(F)F)CC1 [Example 284]
761	666	O=C(Cn1nc(-c2ccc(Cl)cc2)n(Cc2ccccc2F)c1=O)NCc1c(C(F)(F)F)cccc1C(F)(F)F [Example 288]
54	9	O=C(Cn1nc(-c2ccc(Cl)cc2)n(Cc2ccccc2F)c1=O)NCc1cccc(C(F)(F)F)c1Cl [Example 296]
